Data set [1] deals with T1, Sodium- and chloride-dependent glycine transporter 1 (Mus musculus, UniProt P28571).
T1 sequence (P28571 whole entry): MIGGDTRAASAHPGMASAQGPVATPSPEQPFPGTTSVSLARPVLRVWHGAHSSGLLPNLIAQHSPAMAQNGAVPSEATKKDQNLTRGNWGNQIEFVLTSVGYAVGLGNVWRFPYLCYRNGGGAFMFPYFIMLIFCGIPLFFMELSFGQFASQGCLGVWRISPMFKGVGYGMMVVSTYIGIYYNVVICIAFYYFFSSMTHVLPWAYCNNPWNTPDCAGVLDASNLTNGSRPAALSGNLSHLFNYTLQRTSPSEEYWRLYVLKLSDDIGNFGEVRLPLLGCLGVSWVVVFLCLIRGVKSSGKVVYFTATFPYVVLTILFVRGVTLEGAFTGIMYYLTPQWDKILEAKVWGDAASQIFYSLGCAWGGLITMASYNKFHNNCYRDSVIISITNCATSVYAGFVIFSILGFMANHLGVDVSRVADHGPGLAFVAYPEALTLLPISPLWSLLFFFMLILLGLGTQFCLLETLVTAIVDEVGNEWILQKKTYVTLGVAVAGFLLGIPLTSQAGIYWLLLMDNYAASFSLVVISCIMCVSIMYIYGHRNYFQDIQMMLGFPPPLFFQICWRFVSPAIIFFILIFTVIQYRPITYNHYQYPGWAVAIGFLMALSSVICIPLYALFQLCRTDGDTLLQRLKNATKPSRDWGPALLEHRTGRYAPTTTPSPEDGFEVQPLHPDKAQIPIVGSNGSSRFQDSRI
Put plainly: Inhibition of mouse GlyT1.

The next data set concerns the target Cytochrome P450 2D6 (Homo sapiens, UniProt P10635). Put plainly: Inhibition of CYP2D6. In kind it is ADME.
A short description of data set [2]: Partition coefficient, log P of the compound. The format is physicochemical. Conditions: octanol/water; call rule not given here.
Data set [3] deals with Caco-2. As to the kind of experiment: Ratio of permeability from basolateral to apical over apical to basolateral side of Caco-2 cell expressing mouse p-glycoprotein. In kind it is ADME, cell-based. To be noted: human. (In general: Caco-2 cells form a polarised layer with tight junctions and transporters.)
The target of the next data set is Cytochrome P450 3A4 (Homo sapiens, UniProt P08684). Put plainly: Inhibition of CYP3A4. In kind it is ADME.
Sequence of Cytochrome P450 3A4 (P08684 whole entry): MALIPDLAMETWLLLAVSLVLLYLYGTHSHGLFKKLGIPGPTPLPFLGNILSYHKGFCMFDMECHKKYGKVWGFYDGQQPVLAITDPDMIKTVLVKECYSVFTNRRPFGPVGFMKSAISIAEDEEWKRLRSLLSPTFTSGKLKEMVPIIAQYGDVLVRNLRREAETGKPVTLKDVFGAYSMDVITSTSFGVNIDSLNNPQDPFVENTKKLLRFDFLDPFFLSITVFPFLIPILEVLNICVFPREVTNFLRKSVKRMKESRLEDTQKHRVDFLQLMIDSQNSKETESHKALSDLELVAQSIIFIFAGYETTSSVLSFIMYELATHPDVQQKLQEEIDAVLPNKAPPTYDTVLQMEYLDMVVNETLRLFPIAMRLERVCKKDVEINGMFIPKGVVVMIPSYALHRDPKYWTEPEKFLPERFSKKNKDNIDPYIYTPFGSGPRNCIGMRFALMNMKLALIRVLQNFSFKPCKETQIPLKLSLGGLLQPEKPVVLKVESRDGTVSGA
The nature of data set [4]: Apparent permeability in Caco-2 cells. In kind it is ADME, cell-based. Conditions: human.
Data set [5] in a line: Clearance in rat. The format is ADME, organism-based. To be noted: in vivo.
Data set [6] addresses T2, Sodium- and chloride-dependent taurine transporter (Homo sapiens, UniProt P31641).
T2 sequence (P31641 whole entry): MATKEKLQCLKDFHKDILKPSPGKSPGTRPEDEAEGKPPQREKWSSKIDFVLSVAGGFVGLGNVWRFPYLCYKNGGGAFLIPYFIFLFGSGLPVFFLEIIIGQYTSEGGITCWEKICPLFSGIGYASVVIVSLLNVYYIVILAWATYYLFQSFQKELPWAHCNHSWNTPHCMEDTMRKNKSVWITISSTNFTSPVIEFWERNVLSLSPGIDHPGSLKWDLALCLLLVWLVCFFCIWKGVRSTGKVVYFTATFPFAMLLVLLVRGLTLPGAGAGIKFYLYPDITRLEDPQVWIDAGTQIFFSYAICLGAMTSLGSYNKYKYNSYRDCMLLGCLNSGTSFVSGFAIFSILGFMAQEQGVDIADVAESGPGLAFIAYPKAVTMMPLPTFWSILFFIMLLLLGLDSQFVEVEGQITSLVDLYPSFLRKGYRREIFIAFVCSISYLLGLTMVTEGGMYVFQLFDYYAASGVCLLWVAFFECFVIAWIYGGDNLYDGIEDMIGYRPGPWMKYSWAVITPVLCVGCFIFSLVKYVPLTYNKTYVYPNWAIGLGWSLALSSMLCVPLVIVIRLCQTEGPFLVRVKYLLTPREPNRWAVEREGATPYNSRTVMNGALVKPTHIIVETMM
As to the kind of experiment: Inhibition of human TauT.

Data set [7] in a line: Half life in rat. In kind it is ADME, organism-based. To be noted: in vivo.
Data set [8] addresses T3, Sodium- and chloride-dependent glycine transporter 2 (Homo sapiens, UniProt Q9Y345).
T3 sequence (Q9Y345 whole entry): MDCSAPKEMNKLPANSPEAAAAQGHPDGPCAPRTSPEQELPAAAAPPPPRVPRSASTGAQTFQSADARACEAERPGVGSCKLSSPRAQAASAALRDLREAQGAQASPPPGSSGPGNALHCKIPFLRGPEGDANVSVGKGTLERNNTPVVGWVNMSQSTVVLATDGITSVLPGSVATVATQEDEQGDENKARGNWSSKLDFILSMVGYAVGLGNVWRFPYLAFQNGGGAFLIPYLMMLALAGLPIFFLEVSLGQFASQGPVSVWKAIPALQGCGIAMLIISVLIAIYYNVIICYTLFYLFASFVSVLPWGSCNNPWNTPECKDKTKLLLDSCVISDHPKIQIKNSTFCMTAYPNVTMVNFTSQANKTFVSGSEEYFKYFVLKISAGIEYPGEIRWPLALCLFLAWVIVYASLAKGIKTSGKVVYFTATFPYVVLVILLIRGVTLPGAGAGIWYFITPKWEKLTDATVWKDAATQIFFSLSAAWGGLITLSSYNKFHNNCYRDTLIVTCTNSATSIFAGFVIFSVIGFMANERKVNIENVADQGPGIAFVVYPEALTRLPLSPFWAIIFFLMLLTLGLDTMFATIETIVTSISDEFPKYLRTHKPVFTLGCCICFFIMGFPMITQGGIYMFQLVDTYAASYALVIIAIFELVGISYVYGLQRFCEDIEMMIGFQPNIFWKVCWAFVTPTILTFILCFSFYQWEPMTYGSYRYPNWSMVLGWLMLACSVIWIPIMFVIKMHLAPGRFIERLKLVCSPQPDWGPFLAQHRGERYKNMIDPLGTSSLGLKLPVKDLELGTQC
Put plainly: Inhibition of human GlyT2.

Data set [9] deals with Caco-2. As to the kind of experiment: Ratio of permeability from basolateral to apical over apical to basolateral side of Caco-2 cell expressing human p-glycoprotein. In kind it is ADME, cell-based.
The nature of data set [10]: Aqueous solubility of the compound. In kind it is physicochemical.
A further data set deals with Cytochrome P450 2C9 (Homo sapiens, UniProt P11712). Put plainly: Inhibition of CYP2C9. In kind it is ADME.
Sequence of Cytochrome P450 2C9 (P11712 whole entry): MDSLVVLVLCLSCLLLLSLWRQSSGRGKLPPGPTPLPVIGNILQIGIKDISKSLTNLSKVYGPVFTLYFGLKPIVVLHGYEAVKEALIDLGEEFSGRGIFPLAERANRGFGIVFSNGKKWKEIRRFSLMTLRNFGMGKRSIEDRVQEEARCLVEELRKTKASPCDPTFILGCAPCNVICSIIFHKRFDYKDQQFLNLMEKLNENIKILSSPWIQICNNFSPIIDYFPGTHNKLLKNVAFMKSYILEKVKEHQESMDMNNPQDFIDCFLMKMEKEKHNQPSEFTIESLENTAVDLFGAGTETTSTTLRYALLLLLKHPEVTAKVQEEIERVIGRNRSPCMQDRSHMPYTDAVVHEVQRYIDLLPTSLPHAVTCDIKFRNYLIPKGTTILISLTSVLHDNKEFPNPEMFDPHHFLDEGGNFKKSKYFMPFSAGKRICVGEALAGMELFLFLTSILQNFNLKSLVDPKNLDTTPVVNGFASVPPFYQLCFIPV

In brackets after ≈: the same amount, converted by molar mass.

Experimental findings from ChEMBL document CHEMBL1145293, “Synthesis and SAR of GlyT1 inhibitors derived from a series of N-((4-(morpholine-4-carbonyl)-1-(propylsulfonyl)piperidin-4-yl)methyl)benzamides” (Bioorg Med Chem Lett, 2006) are described below.

The term IC50 denotes the concentration needed to halve the response being measured. One may read the logP as the decadic logarithm of the partition coefficient of the neutral form, usually between octanol and water. A higher logP goes with a more lipophilic compound. Broadly, the Papp is the rate of passage across a membrane or cell layer, normalised by area and donor concentration. As a reminder, the clearance is the volume of plasma or blood freed of the substance per unit of time. For orientation: half-life means how long it takes for the measured level to halve. A higher half-life goes with slow decline. By solubility is commonly meant the dissolved amount per volume that the medium holds. Read a high solubility as a readily soluble substance.

Sequence of Cytochrome P450 2D6 (P10635 whole entry): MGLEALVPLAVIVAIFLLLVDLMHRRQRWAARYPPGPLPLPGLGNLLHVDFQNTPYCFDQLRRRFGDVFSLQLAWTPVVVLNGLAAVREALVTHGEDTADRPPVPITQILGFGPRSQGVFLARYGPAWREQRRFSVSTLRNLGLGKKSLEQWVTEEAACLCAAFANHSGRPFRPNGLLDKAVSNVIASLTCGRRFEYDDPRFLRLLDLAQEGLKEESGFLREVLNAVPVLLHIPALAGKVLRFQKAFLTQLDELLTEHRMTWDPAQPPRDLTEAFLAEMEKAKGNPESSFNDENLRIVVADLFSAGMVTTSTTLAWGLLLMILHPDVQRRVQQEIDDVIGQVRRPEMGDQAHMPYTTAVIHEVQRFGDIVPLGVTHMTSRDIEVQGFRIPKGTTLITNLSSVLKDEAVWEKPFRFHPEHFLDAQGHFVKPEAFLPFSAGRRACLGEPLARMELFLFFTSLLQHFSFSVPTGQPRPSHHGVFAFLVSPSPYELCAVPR

As to `CCCS(=O)(=O)N1CCC(CNC(=O)c2ccccc2Cl)(C(=O)N2CCOCC2)CC1`, the values for the IC50 in [1], in data set [6] and in data set [8] were 0.0953 µM, over 30 µM and over 30 µM, respectively. The Activity result at Cytochrome P450 2D6, on Cytochrome P450 3A4 and on Cytochrome P450 2C9 was “Not Active” throughout. In addition, the log partition coefficient (logP) in data set [2] was under 1.4. Moreover, the Ratio in the data set with Caco-2 [3] stood at 8.9; in the data set with Caco-2 [9] it was 10.6. For the same compound, the Papp in [4] was over 22 ×10⁻⁶ cm/s. In data set [5], this compound displayed a clearance of 18 mL/min/kg. Besides, the half-life in data set [7] is 18 min. This compound returned a solubility in [10] of 10000 µg/mL (≈ 21.2 mM).

Regarding `CCCS(=O)(=O)N1CCC(CNC(=O)c2c(F)ccc(Cl)c2F)(C(=O)N2CCOCC2)CC1`, the IC50 in data set [1] is 0.0428 µM; in data set [6], over 30 µM; in data set [8], over 30 µM. The Activity entry on Cytochrome P450 2D6, on Cytochrome P450 3A4 and on Cytochrome P450 2C9 was “Not Active” in each case. For the same compound, in [2], the logP was under 1.4. The values for the Ratio in the data set on Caco-2 [3] and with Caco-2 [9] were 8.9 and 10.6, respectively. In [4], the Papp is over 22 ×10⁻⁶ cm/s. The clearance in [5] amounted to 18 mL/min/kg. Also, the half-life in [7] was 18 min. In data set [10], this compound registered a solubility of 10000 µg/mL (≈ 19.7 mM).

`CCCS(=O)(=O)N1CCC(CNC(=O)c2ccc(F)cc2Cl)(C(=O)N2CCOCC2)CC1`: the values for the IC50 in data set [1], in data set [6] and in data set [8] were 0.0285 µM, over 30 µM and over 30 µM, respectively. Also, the Activity result at Cytochrome P450 2D6, on Cytochrome P450 3A4 and at Cytochrome P450 2C9 was “Not Active” each time. Further, the logP in data set [2] was under 1.4. In addition, the Ratio was determined as 8.9 in the data set with Caco-2 [3] and 10.6 with Caco-2 [9]. Further, the Papp in data set [4] is over 22 ×10⁻⁶ cm/s. In addition, in data set [5], the clearance amounted to 18 mL/min/kg. Also, the half-life in data set [7] was 18 min. Besides, the concentration in solution in [10] (solubility) was 10000 µg/mL (≈ 20.4 mM).

For the compound `CCCS(=O)(=O)N1CCC(CNC(=O)c2cc(F)c(Cl)cc2Cl)(C(=O)N2CCOCC2)CC1`, the half-maximal inhibitory concentration (IC50) was 0.0194 µM in data set [1], over 30 µM in [6] and over 30 µM in [8]. In addition, the Activity result at Cytochrome P450 2D6, on Cytochrome P450 3A4 and on Cytochrome P450 2C9 was “Not Active” in each case. This compound also yielded a logP in data set [2] of under 1.4. Further, the Ratio was 8.9 in the data set on Caco-2 [3] and 10.6 in the data set with Caco-2 [9]. Also, in data set [4], the Papp was over 22 ×10⁻⁶ cm/s. The same compound displayed a clearance in [5] of 18 mL/min/kg. This compound had a half-life in data set [7] of 18 min. In data set [10], this compound gave a solubility of 10000 µg/mL (≈ 19.1 mM).

Consider `CCCS(=O)(=O)N1CCC(CNC(=O)c2c(F)cccc2Cl)(C(=O)N2CCOCC2)CC1`, for which the half-inhibitory concentration (IC50) in data set [1] is 0.0573 µM; in data set [6] it was over 30 µM; in data set [8], over 30 µM. In addition, the Activity result at Cytochrome P450 2D6, on Cytochrome P450 3A4 and on Cytochrome P450 2C9 was “Not Active” throughout. The logP in data set [2] was under 1.4. The Ratio is reported as 8.9 in the data set on Caco-2 [3] and 10.6 in the data set with Caco-2 [9]. Also, in data set [4], the apparent permeability coefficient (Papp) is over 22 ×10⁻⁶ cm/s. The same compound gave a clearance in data set [5] of 18 mL/min/kg. Besides, the half-life in data set [7] was 18 min. Also, in data set [10], the solubility is 10000 µg/mL (≈ 20.4 mM).

Consider `CCCS(=O)(=O)N1CCC(CNC(=O)c2ccc(Cl)cc2Cl)(C(=O)N2CCOCC2)CC1`, for which the IC50 is 0.0076 µM in data set [1], over 30 µM in [6] and over 30 µM in [8]. For the same compound, the Activity result on Cytochrome P450 2D6, on Cytochrome P450 3A4 and on Cytochrome P450 2C9 was “Not Active” throughout. In data set [2], this compound returned a logP of 1.4. Also, the figures for the Ratio in the data set with Caco-2 [3] and in the data set on Caco-2 [9] were 11.4 and 17.9, respectively. The Papp in [4] was found to be 23.6 ×10⁻⁶ cm/s. The clearance in [5] was found to be 20.5 mL/min/kg. In [7], this compound had a half-life of 22.2 min. The same compound returned a solubility in [10] of 18000 µg/mL (≈ 35.5 mM).
